Where a name gives a salt, the structure may show the parent alone.
Test system: KRas G12D-mediated phosphorylation of ERK
Assay: Inhibition of KRas G12D-mediated phosphorylation of ERK in AGS cells
Format: cell-based
Settings: Homo sapiens; AGS cells expressing G12D, 3 hours, phospho-ERK normalized to GAPDH
Description: Cells were plated in tissue culture treated 96 well plates at a density of 40,000 cells/well and allowed to attach for 12-14 hours. Diluted compounds were then added in a final concentration of 0.5% DMSO. After 3 hours, the medium was removed, 150 μL of 4.0% formaldehyde was added and the plates incubated at room temperature for 20 minutes. The plates were washed with PBS, and permeabilized with 150 μL of ice cold 100% methanol for 10 minutes. Non-specific antibody binding to the plates was blocked using 100 μL Licor blocking buffer (Li-Cor Biotechnology, Lincoln Nebr.) for 1 hour at room temperature.
The amount of phospho-ERK was determined using an antibody specific for the phosphorylated form of ERK and compared to the amount of GAPDH. Primary antibodies used for the detection were added as follows: Phospho-ERK (Cell Signaling cs-9101) diluted 1:500 and GAPDH (Millipore MAB374) diluted 1:5000 in Licor block+0.05% Tween 20. The plates were incubated for 2 hours at room temperature. The plates were washed with PBS+0.05% Tween 20.
Secondary antibodies used to visualize primary antibodies were added as follows: Anti-rabbit-680 diluted 1:1000 and Anti-mouse-800 diluted 1:1000 both in Licor block+0.05% TweeN2O, and were incubated for 1 hour at room temperature. The plates were washed with PBS+0.05% Tween 20. A 100 μL aliquot of PBS was added to each well and the plates were read on a Li-Cor Odyssey CLX plate reader.
The phospho-ERK (Thr202/Tyr204 signal was normalized to the GAPDH signal for each well and percent of DMSO control values were calculated. IC50 values were generated using a 4-parameter fit of the dose response curve

Row | SMILES | IC50 [µM]
1 | Fc1c(-c2c(C(F)(F)F)ccc3[nH]ncc23)ncc2c(N3C[C@H]4CC[C@@H](C3)N4)nc(OCC34CCCN3CCC4)nc12 [Example 344, 4-((1R,5S)-3,8-diazabicyclo[3.2.1]octan-3-yl)-8-fluoro-2-((tetrahydro-1H-pyrrolizin-7a(5H)-yl)methoxy)-7-(5-(trifluoromethyl)-1H-indazol-4-yl)pyrido[4,3-d]pyrimidine] | 8.07
2 | COc1cccc2cccc(-c3ncc4c(N5C[C@H]6CC[C@@H](C5)N6)nc(OCC56CCCN5CCC6)nc4c3F)c12 [Example 236, 4-((1R,5S)-3,8-diazabicyclo[3.2.1]octan-3-yl)-8-fluoro-2-((hexahydro-1H-pyrrolizin-7a-yl)methoxy)-7-(8-methoxynaphthalen-1-yl)pyrido[4,3-d]pyrimidine] | 2.63
3 | CCc1cccc2cc(O)cc(-c3ncc4c(N5CC6CCC(C5)N6)nc(OC[C@]56CCCN5[C@@H](COC(=O)N(C)C)CC6)nc4c3F)c12 [Example 434, 7a-(((4-((1R,5S)-3,8-diazabicyclo[3.2.1]octan-3-yl)-7-(8-ethyl-3-hydroxynaphthalen-1-yl)-8-fluoropyrido[4,3-d]pyrimidin-2-yl)oxy)methyl)hexahydro-1H-pyrrolizin-3-yl)methyl dimethyl carbamate] | 0.0067
4 | C#Cc1cccc2cc(O)cc(-c3ncc4c(N5C[C@H]6CC[C@@H](C5)N6)nc(OC[C@@]56CCCN5C[C@H](F)C6)nc4c3F)c12 [Example 243, 4-(4-((1R,5S)-3,8-diazabicyclo[3.2.1]octan-3-yl)-8-fluoro-2-(((2R,7aS)-2-fluorohexahydro-1H-pyrrolizin-7a-yl)methoxy)pyrido[4,3-d]pyrimidin-7-yl)-5-ethynylnaphthalen-2-ol] | 0.0008
5 | Cn1ccnc1COc1nc(N2C[C@H]3CC[C@@H](C2)N3)c2cnc(-c3cc(O)cc4ccccc34)c(F)c2n1 [Example 104, 4-(4-((1R,5S)-3,8-diazabicyclo[3.2.1]octan-3-yl)-8-fluoro-2-((1-methyl-1H-imidazol-2-yl)methoxy)pyrido[4,3-d]pyrimidin-7-yl)naphthalen-2-ol] | > 16.7
6 | CN1CCC[C@H]1COc1nc(N2C[C@H]3CC[C@@H](C2)N3)c2cnc(-c3cc(O)cc4ccccc34)cc2n1 [Example 1, 4-(4-((1R,5S)-3,8-diazabicyclo[3.2.1]octan-3-yl)-2-(((S)-1-methylpyrrolidin-2-yl)methoxy)pyrido[4,3-d]pyrimidin-7-yl)naphthalen-2-ol tris-hydrochloride salt] | 3.16
7 | Oc1cc(-c2ncc3c(N4C[C@H]5CC[C@@H](C4)N5)nc(OC4CCOCC4)nc3c2F)c2ccccc2c1 [Example 72, 4-(4-((1R,5S)-3,8-diazabicyclo[3.2.1]octan-3-yl)-8-fluoro-2-((tetrahydro-2H-pyran-4-yl)oxy)pyrido[4,3-d]pyrimidin-7-yl)naphthalen-2-ol] | 7.26
8 | CCC#Cc1cccc2cccc(-c3ncc4c(N5C[C@H]6CC[C@@H](C5)N6)nc(OCC56CCCN5CCC6)nc4c3F)c12 [Example 242, 4-((1R,5S)-3,8-diazabicyclo[3.2.1]octan-3-yl)-7-(8-(but-1-yn-1-yl)naphthalen-1-yl)-8-fluoro-2-((tetrahydro-1H-pyrrolizin-7a(5H)-yl)methoxy)pyrido[4,3-d]pyrimidine] | > 16.7
9 | CO[C@@H]1C[C@@H](COc2nc(N3C[C@H]4CC[C@@H](C3)N4)c3cnc(-c4cccc5cccc(Cl)c45)c(F)c3n2)N(C)C1 [Example 34, 4-((1R,5S)-3,8-diazabicyclo[3.2.1]octan-3-yl)-7-(8-chloronaphthalen-1-yl)-8-fluoro-2-(((2S,4R)-4-methoxy-1-methylpyrrolidin-2-yl)methoxy)pyrido[4,3-d]pyrimidine] | 4.21
10 | CN(C)C(=O)NC[C@H]1CC[C@@]2(COc3nc(N4CC5CCC(C4)N5)c4cnc(-c5cccc6cccc(Cl)c56)c(F)c4n3)CCCN12 [Example 412, 3-((7a-(((4-(3,8-diazabicyclo[3.2.1]octan-3-yl)-7-(8-chloronaphthalen-1-yl)-8-fluoropyrido[4,3-d]pyrimidin-2-yl)oxy)methyl)hexahydro-1H-pyrrolizin-3-yl)methyl)-1,1-dimethylurea] | 4.78
11 | Oc1cc(-c2ncc3c(N4C[C@H]5CC[C@@H](C4)N5)nc(N4CCC4)nc3c2F)c2ccccc2c1 [Example 119, 4-(2-(azetidin-1-yl)-4-((1R,5S)-3,8-diazabicyclo[3.2.1]octan-3-yl)-8-fluoropyrido[4,3-d]pyrimidin-7-yl)naphthalen-2-ol 2,2,2-trifluoroacetate] | 3.7
12 | Fc1ccc2cccc(-c3ncc4c(N5C[C@H]6CC[C@@H](C5)N6)nc(OCC56CCCN5CCC6)nc4c3F)c2c1Cl [Example 98, 4-((1R,5S)-3,8-diazabicyclo[3.2.1]octan-3-yl)-7-(8-chloro-7-fluoronaphthalen-1-yl)-8-fluoro-2-((tetrahydro-1H-pyrrolizin-7a(5H)-yl)methoxy)pyrido[4,3-d]pyrimidine bis(2,2,2-trifluoroacetate)] | 0.389
13 | CC1(N)CN(c2nc(N3C[C@H]4CC[C@@H](C3)N4)c3cnc(-c4cc(O)cc5ccccc45)c(F)c3n2)C1 [Example 124, 4-(2-(3-amino-3-methylazetidin-1-yl)-4-((1R,5S)-3,8-diazabicyclo[3.2.1]octan-3-yl)-8-fluoropyrido[4,3-d]pyrimidin-7-yl)naphthalen-2-ol] | 11.1
14 | OCc1cccc2cccc(-c3ncc4c(N5C[C@H]6CC[C@@H](C5)N6)nc(OCC56CCCN5CCC6)nc4c3F)c12 [Example 238, (8-(4-((1R,5S)-3,8-diazabicyclo[3.2.1]octan-3-yl)-8-fluoro-2-((tetrahydro-1H-pyrrolizin-7a(5H)-yl)methoxy)pyrido[4,3-d]pyrimidin-7-yl)naphthalen-1-yl)methanol] | 4.66
15 | C#Cc1cccc2cc(O)cc(-c3ncc4c(N5CC6CCC(C5)N6)nc(OC[C@@]56CCCN5C[C@H](OC)C6)nc4c3F)c12 (stereo in doubt) [Example 410, 4-(4-((1R,5S)-3,8-diazabicyclo[3.2.1]octan-3-yl)-8-fluoro-2-((2-methoxytetrahydro-1H-pyrrolizin-7a(5H)-yl)methoxy)pyrido[4,3-d]pyrimidin-7-yl)-5-ethynylnaphthalen-2-ol] | 0.008
16 | Cc1c(Cl)cccc1-c1ncc2c(N3C[C@H]4CC[C@@H](C3)N4)nc(OCC34CCCN3CCC4)nc2c1F [Example 274, 4-((1R,5S)-3,8-diazabicyclo[3.2.1]octan-3-yl)-7-(3-chloro-2-methylphenyl)-8-fluoro-2-((hexahydro-1H-pyrrolizin-7a-yl)methoxy)pyrido[4,3-d]pyrimidine] | 4.71
17 | Cc1cc(-c2ncc3c(N4C[C@H]5CC[C@@H](C4)N5)nc(OCC45CCCN4CCC5)nc3c2F)c2c(Cl)cccc2c1 [Example 175, 4-((1R,5S)-3,8-diazabicyclo[3.2.1]octan-3-yl)-7-(8-chloro-3-methylnaphthalen-1-yl)-8-fluoro-2-((hexahydro-1H-pyrrolizin-7a-yl)methoxy)pyrido[4,3-d]pyrimidine] | > 5.56
18 | Oc1ccc(CC(F)(F)F)c(-c2ncc3c(N4C[C@H]5CC[C@@H](C4)N5)nc(OC[C@@]45CCCN4C[C@H](F)C5)nc3c2F)c1 [Example 424, 3-(4-((1R,5S)-3,8-diazabicyclo[3.2.1]octan-3-yl)-8-fluoro-2-(((2R,7aS)-2-fluorohexahydro-1H-pyrrolizin-7a-yl)methoxy)pyrido[4,3-d]pyrimidin-7-yl)-4-(2,2,2-trifluoroethyl)phenol] | 0.681
19 | Fc1c(-c2c3ccccc3cc3[nH]ncc23)ncc2c(N3C[C@H]4CC[C@@H](C3)N4)nc(OCC34CCCN3CCC4)nc12 [Example 257, 4-(4-((1R,5S)-3,8-diazabicyclo[3.2.1]octan-3-yl)-8-fluoro-2-((hexahydro-1H-pyrrolizin-7a-yl)methoxy)pyrido[4,3-d]pyrimidin-7-yl)-1H-benzo[f]indazole] | 0.531
20 | O=C1OCCN1C[C@H]1CC[C@@]2(COc3nc(N4CC5CCC(C4)N5)c4cnc(-c5cccc6cccc(Cl)c56)c(F)c4n3)CCCN12 [Example 442, 3-(((3R,7aR)-7a-(((4-(3,8-diazabicyclo[3.2.1]octan-3-yl)-7-(8-chloronaphthalen-1-yl)-8-fluoropyrido[4,3-d]pyrimidin-2-yl)oxy)methyl)hexahydro-1H-pyrrolizin-3-yl)methyl)oxazolidin-2-one] | 1.16
21 | OCCc1cccc2cccc(-c3ncc4c(N5C[C@H]6CC[C@@H](C5)N6)nc(OCC56CCCN5CCC6)nc4c3F)c12 [Example 239, 2-(8-(4-((1R,5S)-3,8-diazabicyclo[3.2.1]octan-3-yl)-8-fluoro-2-((tetrahydro-1H-pyrrolizin-7a(5H)-yl)methoxy)pyrido[4,3-d]pyrimidin-7-yl)naphthalen-1-yl)ethan-1-ol] | 2.95
22 | COCCNC(=O)O[C@@H]1C[C@@H](COc2nc(N3C[C@H]4CC[C@@H](C3)N4)c3cnc(-c4cccc5cccc(Cl)c45)c(F)c3n2)N(C)C1 [Example 280, (3R,5S)-5-(((4-((1R,5S)-3,8-diazabicyclo[3.2.1]octan-3-yl)-7-(8-chloronaphthalen-1-yl)-8-fluoropyrido[4,3-d]pyrimidin-2-yl)oxy)methyl)-1-methylpyrrolidin-3-yl (2-methoxyethyl)carbamate] | 6.12

From patent US11453683B1, “KRas G12D inhibitors” (Mirati Therapeutics, Inc., priority 2019, dated 2022)
